Usually inhibition stands for the percentage by which the read-out fell short of the control.

Experimental findings from patent publication US5179091A, “Chalcones” (Adir et Compagnie, priority 1990, dated 1993) are described below.

Assay [1] addresses T1, lipoxygenase (Homo sapiens, UniProt P09917).
T1 construct: endogenous in cells
T1 sequence (P09917 1-674): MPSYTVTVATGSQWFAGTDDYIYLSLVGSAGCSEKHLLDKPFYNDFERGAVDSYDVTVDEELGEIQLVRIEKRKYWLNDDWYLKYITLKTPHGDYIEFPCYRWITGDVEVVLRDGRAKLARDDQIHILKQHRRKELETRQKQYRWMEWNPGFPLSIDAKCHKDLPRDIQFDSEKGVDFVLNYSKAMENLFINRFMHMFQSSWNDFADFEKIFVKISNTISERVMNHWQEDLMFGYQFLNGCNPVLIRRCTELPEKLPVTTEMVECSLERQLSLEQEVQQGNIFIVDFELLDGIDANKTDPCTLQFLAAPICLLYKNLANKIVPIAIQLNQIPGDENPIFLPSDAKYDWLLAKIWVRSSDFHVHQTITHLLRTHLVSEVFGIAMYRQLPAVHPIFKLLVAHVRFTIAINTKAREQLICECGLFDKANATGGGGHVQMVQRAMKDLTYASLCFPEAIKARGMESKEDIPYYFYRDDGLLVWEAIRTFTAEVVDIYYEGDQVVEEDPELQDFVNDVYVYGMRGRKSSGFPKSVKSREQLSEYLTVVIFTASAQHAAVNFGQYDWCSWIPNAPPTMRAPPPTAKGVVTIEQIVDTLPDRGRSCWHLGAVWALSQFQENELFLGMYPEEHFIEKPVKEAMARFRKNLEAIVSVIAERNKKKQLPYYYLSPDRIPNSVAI
Nature of the assay: Inhibition of lipoxygenase activity, LTB4 measured by radioimmunoassay. The format is cell-based. To be noted: concentration of 10^-5 M, washed human polynuclear cells activated by calcium; read-out: inhibition of lipoxygenase action (LTB4 produced). On the procedure:
The lipoxygenase activity is measured using washed human polynuclear cells, in the presence and absence of the claimed compounds after activation by calcium (A 23/87). The leukotriene B4 (LTB4) produced is measured by radioimmunoassay (Gresele, P. et al. Biochem. Biophys. Res. Comm. 1986, 137, 334-342).

For assay [2], the system named is rat brain homogenates. Nature of the assay: Inhibition of lipid peroxidation induced by the Fe++/ascorbate system. The format is biochemical. To be noted: concentration of 10^-5 M, Fe++/ascorbate (10 μM/250 μM). On the procedure:
A study of the capacity of the compounds of the invention to trap free OH. radicals was studied on rat brain homogenates on the other hand with respect to peroxidation induced by the Fe++/ascorbate (10 μM/250 μM) system. The rat brain homogenates are placed in the presence or absence of the test compounds for 60 minutes at 37° C. The intensity of lipid peroxidation in the presence and in the absence of the compounds of the invention is determined by the substances reacting with thiobarbituric acid, expressed in mmol of malondialdehyde, by a method derived from that of […], Biochem. Med. 1976, 15, 212-216). The methodology is identical, with the exception of the addition to the homogenate of the Fe++/ascorbate radical-inducing system.

A short description of assay [3]: Inhibition of formation of conjugated dienes formed by free-radical activity. Conditions: 10^-5 M concentration, linoleic acid emulsion, Fe2+/Fe3+ mixture. The format is biochemical. The source says:
This methodology consists in generating free OH- radicals in an emulsion of linoleic acid, by means of a system consisting of an Fe^2+ /Fe^3+ mixture.

The test system of assay [4] is native LDL. Kind of assay: Level of LDL oxidation by Cu++, oxidation products assayed by FPLC. It counts as biochemical. To be noted: relative to probucol (i=1). On the procedure: Under these conditions, free radicals are generated by Cu++ in a medium containing native LDL in the presence or absence of the test compounds. The reaction is stopped by adding 2,6-di-tert-butyl-4-methylphenol and EDTA to the reaction medium and the oxidation products are assayed by FPLC.
D being the height of the peak of fraction 27/28 of the chromatogram; the sum of the oxidized fractions 27/28 and 31/32 is equal to 100.

In assay [5] the test system is rat brain homogenates. Nature of the assay: Inhibition of spontaneous lipid peroxidation (thiobarbituric acid reacting substances). The format is biochemical. To be noted: concentration of 10^-5 M, 60 minutes at 37° C. On the procedure:
A study of the capacity of the compounds of the invention to trap free OH. radicals was studied on rat brain homogenates on the one hand with respect to the spontaneous peroxidation of lipids, The rat brain homogenates are placed in the presence or absence of the test compounds for 60 minutes at 37° C. The intensity of lipid peroxidation in the presence and in the absence of the compounds of the invention is determined by the substances reacting with thiobarbituric acid, expressed in mmol of malondialdehyde, by a method derived from that of […], Biochem. Med. 1976, 15, 212-216).

Assay [6] relates to Human red cells. Kind of assay: AAPH-induced hemolysis. It counts as cell-based. Conditions: Erythrocyte, 0.5 h, concentration of 10^-5 M, 30 minutes at 37° C.

Turning to `Cn1c(=O)oc2ccc(C(=O)C=Cc3cc(C(C)(C)C)c(O)c(C(C)(C)C)c3)cc21` [Example 1, 5-(3',5'-di-tert-butyl-4'-hydroxycinnamo-yl)-3-methylbenzoxazolinone], in assay [1], the inhibition at 10 µM is roughly 80%. For the molecule `Cn1c(=O)sc2cc(C(=O)C=Cc3cc(C(C)(C)C)c(O)c(C(C)(C)C)c3)ccc21` [Example 4, 6-(3',5'-di-tert-butyl-4'-hydroxycinnamoyl)-3-methylbenzothiazolinone], the “inhibition of induced peroxidation” value in assay [2] was roughly 30%. For `Cn1c(=O)oc2cc(C(=O)C=Cc3cc(C(C)(C)C)c(O)c(C(C)(C)C)c3)ccc21` [Example 5, 6-(3',5'-di-tert-butyl-4'-hydroxycinnamoyl)-3-methylbenzoxazolinone], the inhibition at 10 µM in assay [1] was roughly 60%.

In the case of `CC(C)(C)c1cc(C=CC(=O)c2ccc3[nH]c(=O)oc3c2)cc(C(C)(C)C)c1O` [Example 6, 6-(3',540-di-tert-butyl-4'-hydroxycinnamoyl)benzoxazolinone], in assay [3], the “inhibition of diene formation” value is on record as “approximately 75%”. Still for that read-out and setting: as for `CC(C)(C)c1cc(C=CC(=O)c2ccc3c(c2)OCC(=O)N3)cc(C(C)(C)C)c1O` [Example 7, 7-(3',54- -di-tert-butyl-4'-hydroxycinnamoyl)-1,4-benzoxazin-3-one], the entry is “approximately 75%”. For `CC1C(=Cc2cc(C(C)(C)C)c(O)c(C(C)(C)C)c2)C(=O)c2cc3oc(=O)n(C)c3cc21` (stereo not drawn) [Example 27, 2,3-dihydro-3,5-dimethyl-6-(3',5'-di-tert-butyl-4'-hydroxybenzylidene)cyclopenta[f]benzoxazone-2,7-dione], the “LDL oxidation: oxidized fraction 27/28 of the chromatogram” value in assay [4] is recorded as “oxidized fraction 27/28 disappears”. As to `CC1CC(=Cc2cc(C(C)(C)C)c(O)c(C(C)(C)C)c2)C(=O)c2cc3c(cc21)oc(=O)n3C` (stereo not drawn) [Example 28, 2,3-dihydro-3,8-dimethyl-6-(3',5'-di-tert-butyl-4'-hydroxybenzylidene)cyclohexa[f]benzoxazone-2,5-dione], the “LDL oxidation: oxidized fraction 27/28 of the chromatogram” value in assay [4] is on record as “oxidized fraction 27/28 disappears”. On the same count and under the same terms, for `CC1C(=Cc2cc(C(C)(C)C)c(O)c(C(C)(C)C)c2)C(=O)c2cc3c(cc21)oc(=O)n3C` (stereo not drawn) [Example 29, 2,3-dihydro-3,7-dimethyl-6-(3',5'-di-tert-butyl-4'-hydroxybenzylidene)cyclopenta[f]benzoxazole-2,5-dione] the value was “oxidized fraction 27/28 disappears”. With `CC1C(=Cc2cc(C(C)(C)C)c(O)c(C(C)(C)C)c2)C(=O)c2cc3oc(=O)[nH]c3cc21` (stereo not drawn) [Example 33, 2,3-dihydro-5-methyl-6-(3',5'-di-tert-butyl-4'-hydroxybenzylidene)cyclopenta[f]benzoxa-zone-2,6-dione], the “LDL oxidation: oxidized fraction 27/28 of the chromatogram” value in assay [4] is listed as “oxidized fraction 27/28 disappears”. Besides, the “inhibition of induced peroxidation” value in assay [2] was roughly 50%. Besides, the “inhibition of spontaneous peroxidation” value in assay [5] is recorded as “approximately 50%”. On to `CC(C)(C)c1cc(C=C2C(=O)c3cc4oc(=O)[nH]c4cc3C2c2ccccc2)cc(C(C)(C)C)c1O` (stereo not drawn) [Example 35, 2,3-dihydro-5-phenyl-6-(3',5'-di-tert-butyl-4'-hydroxybenzylidene)cyclopenta[f]benzoxazole-2,7-dione], for which, in assay [4], the “LDL oxidation: oxidized fraction 27/28 of the chromatogram” value is “oxidized fraction 27/28 disappears”. In assay [2], the “inhibition of induced peroxidation” value was roughly 50%. In addition, the “inhibition of spontaneous peroxidation” value in assay [5] is given as “approximately 50%”. Besides, in assay [1], the inhibition at 10 µM was roughly 60%. Regarding `Cn1c(=O)oc2cc3c(cc21)C(c1ccccc1)C(=Cc1cc(C(C)(C)C)c(O)c(C(C)(C)C)c1)C3=O` (stereo not drawn) [Example 36, 2,3-dihydro-3-methyl-5-phenyl-6-(3',5'-di-tert-butyl-4'-hydroxybenzylidene)cyclopenta[f]benzoxazole-2,7-dione], the “inhibition of diene formation” value in assay [3] is reported as “approximately 50%”. The “LDL oxidation: oxidized fraction 27/28 of the chromatogram” value in assay [4] was “oxidized fraction 27/28 disappears”. In assay [2], the “inhibition of induced peroxidation” value is reported as roughly 50%. The “inhibition of spontaneous peroxidation” value in assay [5] is “approximately 50%”. The inhibition at 10 µM in assay [1] is roughly 60%. `Cn1c(=O)oc2cc3c(cc21)CC(=Cc1cc(C(C)(C)C)c(O)c(C(C)(C)C)c1)C3=O` [Example 40, 2,3-dihydro-3-methyl-2,7-dioxo-6-(3',5'-di-tert-butyl-4'-hydroxybenzylidene)cyclopenta[f]benzoxazole-2,7-dione]: the “inhibition of spontaneous peroxidation” value in assay [5] is listed as “approximately 50%”. Take `CC(C)(Sc1cc(C(C)(C)C)c(O)c(C(C)(C)C)c1)Sc1cc(C(C)(C)C)c(O)c(C(C)(C)C)c1` [probucol, reference compound]: the inhibition at 10 µM in assay [6] is 48%; in assay [1], 44%. Besides, the “inhibition of induced peroxidation” value in assay [2] turned out to be 27%. In addition, the “inhibition of spontaneous peroxidation” value in assay [5] amounted to 37%. Take vitamin E [reference compound]: the “inhibition of induced peroxidation” value in assay [2] was 6%. For the same molecule, the “inhibition of spontaneous peroxidation” value in assay [5] amounted to 18%.
